Data published in paper PMC8652005 (2021).

Experiments:
[1] = test system: add_FL (RNA, riboswitch) GGGAAGAAACGCUUCAUAUAAUCCUAAUGAUAUGGUUUGGGAGUUUCUACCAAGAGCCUUAAACUCUUGAUUAUGAAGUCUGUCGCUUUAUCCCAAAUUUUAUAAAGAGAAGACUCAUGAAU; experiment: ITC; details: 100 mM KCl, 10 mM MgCl2; 10 mM HEPES, pH 7.5, room temperature
[2] = test system: add_P1 (RNA, riboswitch) GGGAAGAUAUAAUCCUAAUGAUAUGGUUUGGGAGUUUCUACCAAGAGCCUUAAACUCUUGAUUAUCUUCUCUGUCGCUUUAUCCCAAAUUUUAUAAAGAGAAGACUCAUGAAU; experiment: ITC; details: 100 mM KCl, 10 mM MgCl2; 10 mM HEPES, pH 7.5, room temperature

- Kd [1]: 90.0 ± 0.96 nM
- Kd [2]: 67.6 ± 0.53 nM
SMILES: Nc1ncnc2[nH]cnc12
